Measurements from the NIST ThermoML archive (doi:10.1007/s10765-006-0114-6).

Settings: Fluid (supercritical or subcritical phases), vibrating plate method

[Ar] [argon]
Settings | mass density [kg/m3] | viscosity [mPa·s]
323.16 K, 7006 kPa | 107.17 | 0.02744
323.16 K, 13877 kPa | 213.45 | 0.02979
323.16 K, 20899 kPa | 316.3 | 0.03257
323.16 K, 27679 kPa | 408.2 | 0.0352
323.16 K, 34459 kPa | 489.8 | 0.0382
323.16 K, 41249 kPa | 561.2 | 0.0415
323.16 K, 48119 kPa | 624.2 | 0.0448
323.16 K, 54885 kPa | 678.5 | 0.0481
323.16 K, 61690 kPa | 726.2 | 0.0512
323.16 K, 68312 kPa | 767.5 | 0.0542
348.15 K, 6978 kPa | 97.69 | 0.02904
348.15 K, 17496 kPa | 241.15 | 0.03308
348.15 K, 27653 kPa | 368.7 | 0.0358
348.15 K, 34469 kPa | 444.9 | 0.0381
348.15 K, 41288 kPa | 513.1 | 0.0407
348.15 K, 48154 kPa | 574.3 | 0.0434
348.15 K, 54879 kPa | 627.8 | 0.0463
348.15 K, 61690 kPa | 676.3 | 0.049
348.15 K, 68529 kPa | 719.8 | 0.051
398.11 K, 7360 kPa | 88.47 | 0.0292
398.11 K, 13876 kPa | 165.12 | 0.03138
398.11 K, 27719 kPa | 316.2 | 0.0362
398.11 K, 34448 kPa | 382.2 | 0.0386
398.11 K, 41294 kPa | 443.6 | 0.0417
398.11 K, 48140 kPa | 499.6 | 0.0441
398.11 K, 54949 kPa | 550.4 | 0.0466
398.11 K, 61785 kPa | 596.9 | 0.0491
423.11 K, 7008 kPa | 79.27 | 0.03113
423.11 K, 7272 kPa | 82.13 | 0.02996
423.11 K, 14124 kPa | 157.84 | 0.03214
423.11 K, 14381 kPa | 160.69 | 0.03398
423.11 K, 21056 kPa | 231.04 | 0.0342
423.11 K, 21065 kPa | 231.06 | 0.0361
423.11 K, 27779 kPa | 297.59 | 0.0381
423.11 K, 27786 kPa | 297.92 | 0.0359
423.11 K, 34529 kPa | 359.8 | 0.0403
423.11 K, 34605 kPa | 361 | 0.0376
423.11 K, 41249 kPa | 417.7 | 0.0398
423.11 K, 48189 kPa | 472.3 | 0.0418
423.11 K, 48197 kPa | 472.3 | 0.0421
423.11 K, 55018 kPa | 521.5 | 0.0444
423.11 K, 61834 kPa | 566.5 | 0.0467
423.11 K, 68620 kPa | 608 | 0.0493
